Consider ten compounds from US8236843B2, “Anti inflammatory compounds” (Elder Pharmaceuticals Ltd., priority 2008, dated 2012).

Like-named read-outs stand apart in the source and are kept apart here. A value given as a limit tells only on which side of the number the result lay.

The subject of data set [1] is Swiss albino mice. Put plainly: Analgesic activity against acetic acid induced writhing. In kind it is in vivo. The following applies: 10 mg/kg p.o., 1 h before i.p. 0.6% acetic acid; writhes counted for 10 min. An excerpt: (§1) Male Wistar rats weighing 175-200 g and Swiss albino mice weighing 20-25 g were housed in the Animal Care Facility. The animals were fed standard laboratory feed and tap water. Unless otherwise noted, in all experiments described in the following text, the sample size in each group was at least 6.
Analgesic Activity Against Acetic Acid Induced Writhing
Pain was induced by injection of irritant i.e. acetic acid into the peritoneal cavity of mice. […] Vehicle (1% w/v carboxymethylcellulose (CMC), 0.5 ml per orally (p.o.)) was given to control group (n=6 per group) of mice. […]. One hour following the administration of test molecule, 0.1 ml/100 gm of 0.6% v/v acetic acid solution was injected intraperitoneally to each of the test mice. The number of writhes that occurred within the next 10 min following acetic acid administration was counted and recorded. Results were expressed as percentage inhibition of writhing.
(In general: In writhing tests, fewer writhes than in controls are read as antinociception.)

The subject of data set [2] is Wistar rats. Put plainly: Carrageenan-induced rat paw edema model. In kind it is in vivo. As to conditions: 10 mg/kg oral, 2 h before carrageenan; for Anti-inflammatory activity in Wistar rats (% inhibition) 3 h: paw edema at 3 h; for Anti-inflammatory activity in Wistar rats (% inhibition) 4 h: paw edema at 4 h. The protocol:
as §1
In Vivo Screening Method, Carrageenan-Induced Rat Paw Edema Model
Male Wistar rats (120-140 gm) were fasted for 16 hour before the experiment. Anti-inflammatory activity was evaluated by carrageenan-induced paw edema test in rats. Diclofenac sodium, tolfenamic acid and celecoxib at 10 mg/kg were administered as standard drugs for comparison. The test molecules were administered at dose level 10 mg/kg. Molecules were suspended in 0.25% carboxymethylcellulose (CMC) and administered orally in a volume of 10 ml/kg, 2 hour before carrageenan injection. Paw edema was induced in rats by intradermal injection of 50 μl, of 1% λ-carrageenan in saline into the planer surface of right hind paw. The volume of the injected paw was measured hourly thereafter for 4 hours using plethysmometer (Ugo-Basile, Italy). Paw edema was compared with vehicle controlled group and percentage inhibition was calculated.
(In general: Carrageenan injected into the paw causes an acute inflammation.)

The subject of data set [3] is Wistar rats. As to conditions: for Gastric score: 100 mg/kg oral, fasted rats, 5 hours, sum of lesion lengths, mean SEM, 6 rats; for Histopathology study (ulcerogenecity): Dose 100 mg/kg oral, rat stomach.
Description: (§2) Assessment of Gastric Ulcerogenic Effects in the Rat on Acute Administration of Drugs
(§3) Groups of 6 male Wistar rats weighing 120-140 g were fasted for 24 h with free access to water. […] The lengths (in millimeters) of all hemorrhagic lesions were measured and the “gastric damage score” was calculated for each stomach by summing these values. After scoring the damage, a sample of the corpus region of each stomach was fixed in neutral buffered formalin for subsequent histologic assessment.
Data set [4] can be described thus: Acute oral toxicity studies (OECD AOT No. 425). The following applies: both sexes, mouse, in vivo, albino mice, observed 48 hrs. How it is done: Acute Oral Toxicity Studies
The mice were observed continuously for 2 h for behavioral, neurological and autonomic profiles for any lethality or death for next 48 hrs. Based on the results obtained from this study, lethal dose (LD50) was calculated.

The test system of data set [5] is Wistar rats. As to conditions: rat, in vivo, po, 100 mg/kg.
Description: as §2, §3

As usually defined, the melting point is the temperature, or range, at which the solid turns liquid. The compound `O=[N+]([O-])c1cn(Cc2ccc(-c3ccccc3-c3nnn[nH]3)cc2)cn1` returned a melting point of 202 to 204 °C.
The same measure, in the same setting: with `Cc1nc([N+](=O)[O-])c(Br)n1Cc1ccc(-c2ccccc2C#N)cc1` the figure was 158 to 162 °C; with `Cc1nc([N+](=O)[O-])c(Br)n1Cc1ccc(-c2ccccc2C(=O)O)cc1`, 222 to 225 °C.
On to `Cc1ncc([N+](=O)[O-])n1Cc1ccc(-c2ccccc2C#N)cc1` [4′-(2-Methyl-5-nitro-imidazol-1-ylmethyl)-biphenyl-2-carbonitrile], for which the “Analgesic activity in Swiss albino mice (% inhibition)” value (from here on “Analgesic activity … (% inhibition)”) in data set [1] stood at 84.25%. Moreover, in data set [2], the “Anti-inflammatory activity in Wistar rats (% inhibition) 3 h” value turned out to be 19.52% and the “Anti-inflammatory activity in Wistar rats (% inhibition) 4 h” value came to 24.25%.
As to `N#Cc1ccccc1-c1ccc(Cn2cnc([N+](=O)[O-])c2)cc1` [4′-(4-Nitro-imidazol-1-ylmethyl)-biphenyl-2-carbonitrile], the “Analgesic activity … (% inhibition)” value in data set [1] was 86.61%. In addition, in data set [2], the “Anti-inflammatory activity in Wistar rats (% inhibition) 3 h” value is 35.82% and the “Anti-inflammatory activity in Wistar rats (% inhibition) 4 h” value was 44.28%. Moreover, in data set [3], the Gastric score was determined as 1.83 ± 0.54 and the “Histopathology study (ulcerogenecity)” value was “No sign of ulceration”.
For `O=C(O)c1ccccc1-c1ccc(Cn2cnc([N+](=O)[O-])c2)cc1` [4′-(4-Nitro-imidazol-1-ylmethyl)-biphenyl-2-carboxylic acid], in data set [1], the “Analgesic activity … (% inhibition)” value is recorded as 84.13%. Also, in data set [2], the “Anti-inflammatory activity in Wistar rats (% inhibition) 3 h” value is 38.31% and the “Anti-inflammatory activity in Wistar rats (% inhibition) 4 h” value stood at 44.63%. For the same compound, in data set [3], the Gastric score turned out to be 1.6 ± 0.50 and the “Histopathology study (ulcerogenecity)” value was “No sign of ulceration”.
One may read the LD50 as the dose at which mortality reaches 50%. For `Cc1ccc(-c2cc(C(F)(F)F)nn2-c2ccc(S(N)(=O)=O)cc2)cc1` [Celecoxib, reference compound], the “Analgesic activity … (% inhibition)” value in data set [1] is 77.0%. In data set [2], the “Anti-inflammatory activity in Wistar rats (% inhibition) 3 h” value is reported as 45.24% and the “Anti-inflammatory activity in Wistar rats (% inhibition) 4 h” value came out at 45.32%. In data set [4], this compound came in with a median lethal dose (LD50) at 48 h of under 2000 mg/kg. For the same compound, in data set [5], the “Histopathology study (ulcerogenecity)” value was “No sign of ulceration”.
In the case of `O=C(O)Cc1ccccc1Nc1c(Cl)cccc1Cl` [Diclofenac sodium, reference compound], the “Analgesic activity … (% inhibition)” value in data set [1] stood at 89.51%. In data set [2], the “Anti-inflammatory activity in Wistar rats (% inhibition) 3 h” value came out at 35.05% and the “Anti-inflammatory activity in Wistar rats (% inhibition) 4 h” value is recorded as 39.99%.
In turn, `NS(=O)(=O)c1ccc(Nc2ccccc2-c2ccc(Cn3cc([N+](=O)[O-])nc3CO)cc2)cc1` [Formula (I) Sr. No. 7, 4-[4′-(2-Hydroxymethyl-4-nitro-imidazol-1-ylmethyl)-biphenyl-2-ylamino]-benzenesulfonamide] yielded a melting point of 154 to 155 °C.
With `Cc1c(Cl)cccc1Nc1ccccc1C(=O)O` [Tolfenamic acid], the LD50 at 48 h in data set [4] is under 550 mg/kg. In data set [5], the “Histopathology study (ulcerogenecity)” value was “Shows sign of”.
